Measured values published in patent US9597307B2 (priority 2012, dated 2017).
Read-outs that look alike come from different tables or passages of the source.

What was measured:
Wistar rats = details: high fructose diet, two weeks of daily injections 10 mg/kg, vs vehicle-treated control
Text: For intraperitoneal pyruvate tolerance tests, a high fructose diet was used to induce insulin resistance on a group of Wistar rats. […] Intraperitoneal pyruvate tolerance tests are a procedure where pyruvate is converted to glucose in gluconeo-genesis. The test specifically reflects the insulin sensitivity of the liver.

H-4-II-E cells = details: without or with 10 or 100 nM insulin, FIG. 3
Method: H-4-II-E cells were seeded 110,000/well in 24-well plates in their usual medium (EMEM from ATCC, no 30-2003 with addition of 10% FBS and penicillin/streptomycin) at day 0 and incubated with 0.25 mM palmitate-BSA (ratio 10:3) for 16 h ON day 2-3. […] The cells were washed 3 times with glucose output medium (GOM) without glucogenic substrates (118 mM NaCl, 4.7 mM KCl, 1.2 mM MgSO4, 1.2 mM KH2P04, 1.2 mM CaC12, 20 mM NaHCO3, 25 mM HEPES pH 7.4 and 0.025% BSA). Then 500 ul of GOM (118 mM NaCl, 4.7 mM KCl, 1.2 mM MgSO4, 1.2 mM KH2PO4, 1.2 mM CaCl2, 20 mM NaCO3, 25 mM HEPES pH 7.4, 0.025% BSA, 20 mM lactate, 2 mM pyruvate and 10 mM glutamine) and GOM with the addition of 10 or 100 nM insulin was added, and the cells were allowed to incubate for 5 h. After that, most of the incubation medium (375 ul) was removed and used for glucose measurements. The cells were washed once with cold PBS and lyzed with 200 ul RIPA buffer for determination of protein concentration. […] Glucose concentration in the buffer samples was determined using the AmplexRed Glucose/Glucose Oxidase Assay Kit (LifeTechnologies no. A22189) following the manufacturer's instructions. Protein concentration in the cell lysates was measured using Pierce BCA Protein Assay Kit (ThermoScientific no. 23225).

T2D signature = details: Wistar rats, high fructose diet, two weeks of daily injections 10 mg/kg; p<0.0001 using Fisher's exact test
Text: In a first attempt to use gene network analyses for drug repositioning, a panel of 50 genes that are perturbed in the liver in T2D (‘T2D signature’) were identified. The genes were selected using differential expression analysis, causality tests, and a Bayesian network algorithm to identify genes that regulate the expression of several other disease genes (‘key regulators’).
A high fructose diet was used to induce insulin resistance on a group of Wistar rats.

[1] = cited from earlier work; for toxicity in studies / clinical testing: other indications (cancer and immune diseases), high doses

Structure (SMILES): C[S+]([O-])CCCCN=C=S (stereo not drawn) [sulforaphane]
- intraperitoneal pyruvate tolerance (insulin sensitivity of the liver) (Wistar rats; FIG. 2): significant positive effect
- intraperitoneal pyruvate tolerance (insulin sensitivity of the liver) (Wistar rats; FIG. 2, listed as Sulforaphane): showed significant differences from a vehicle-treated control group
- hepatic glucose output, insulin-sensitive liver cells (H-4-II-E cells; 10 uM sulforaphane for 28 h): decreases hepatic glucose output
- hepatic glucose output, insulin-resistant (induced by palmitate) liver cells (H-4-II-E cells; 0.25 mM palmitate-BSA 16 h, then 10 uM sulforaphane for 28 h): decreases hepatic glucose output
- result of the experiments repeated in animals on high-fat diet (animals on high-fat diet): positive results
- reversal of genes in the T2D signature in liver (T2D signature): a major fraction of the genes in the T2D signature was reversed
- serious adverse events in ongoing studies ([1]; ongoing studies for other indications): no serious adverse events have been reported
- toxicity in studies / clinical testing [1]: low toxicity even at high doses
- toxicity in studies / clinical testing ([1]; listed as Sulforaphane): very low toxicity even at high doses
